Measured values reported in the NIST ThermoML archive (doi:10.1016/j.fluid.2014.09.014).
Numbers after ± are expanded uncertainties.

Experiment: refractive index (other wavelength) (dimensionless); xn = mol fraction of the nth substance listed
Details: 318.15 K, 101 kPa, Liquid, Standard Abbe refractometry

CC(C)OC(C)C [diisopropyl ether] + CO
refractive index
Details | Wavelength=40.47 nm | Wavelength=435.8 nm | Wavelength=486.1 nm
x2 = 0 | – | 1.36157 ± 0.00044 | 1.35832 ± 0.00044
x2 = 0.0423 | – | 1.36155 ± 0.00043 | 1.35829 ± 0.00043
x2 = 0.0424 | – | 1.36152 ± 0.00043 | 1.35828 ± 0.00043
x2 = 0.082 | – | 1.36153 ± 0.00042 | 1.35827 ± 0.00042
x2 = 0.0822 | – | 1.36167 ± 0.00042 | 1.35838 ± 0.00042
x2 = 0.1171 | – | 1.36159 ± 0.00041 | 1.35824 ± 0.00041
x2 = 0.1271 | – | 1.36158 ± 0.00041 | 1.35832 ± 0.00041
x2 = 0.1827 | – | 1.3614 ± 0.0004 | –
x2 = 0.2162 | – | 1.36132 ± 0.0004 | –
x2 = 0.251 | – | 1.36074 ± 0.00039 | –
x2 = 0.3298 | – | 1.36122 ± 0.00038 | –
x2 = 0.3577 | – | 1.36012 ± 0.00038 | –
x2 = 0.4497 | – | 1.35893 ± 0.00038 | –
x2 = 0.4525 | – | 1.35967 ± 0.00038 | –
x2 = 0.522 | – | 1.3572 ± 0.00035 | –
x2 = 0.5543 | – | 1.35624 ± 0.00035 | –
x2 = 0.609 | 1.35666 ± 0.00034 | 1.35398 ± 0.00034 | –
x2 = 0.6529 | 1.35514 ± 0.00034 | 1.35244 ± 0.00034 | –
x2 = 0.7504 | 1.35095 ± 0.00034 | 1.34832 ± 0.00034 | –
x2 = 0.804 | 1.34473 ± 0.00035 | 1.34218 ± 0.00035 | –
x2 = 0.807 | 1.3465 ± 0.00035 | 1.34393 ± 0.00035 | –
x2 = 0.8727 | 1.34338 ± 0.00033 | 1.34082 ± 0.00033 | –
x2 = 0.9233 | 1.33515 ± 0.00033 | 1.33279 ± 0.00033 | –
x2 = 0.9253 | 1.33682 ± 0.00033 | 1.33442 ± 0.00032 | –
x2 = 0.9527 | 1.33369 ± 0.00032 | 1.33136 ± 0.00032 | –
x2 = 0.9773 | 1.33062 ± 0.00032 | 1.32834 ± 0.00032 | –
x2 = 0.989 | 1.32932 ± 0.00032 | 1.32708 ± 0.00032 | –
x2 = 0.9964 | 1.32844 ± 0.00032 | 1.32617 ± 0.00032 | –
